Test results as given in ChEMBL document CHEMBL3244251, “Mitomycin antibiotics. Synthesis of 7-methoxy-1-(N-pyrrolidino)mitosene and its methiodide” (J Med Chem, 1978).
Calls of active or inactive are those of the source. The calls are words filed in the database; no cut-off is given here.

Assays:
[1] = test system: Escherichia coli; assay: Toxicity in streptomycin-dependent lysogenic Escherichia coli W1709 (lambda) at 3.1 ug/ml; type: organism-based; conditions: in vivo
[2] = test system: Escherichia coli; assay: Toxicity in streptomycin-dependent lysogenic Escherichia coli W1709 (lambda) at 0.8 ug/ml; type: organism-based; conditions: in vivo
[3] = test system: P388; assay: In vivo antitumor activity against mouse P388 cells at 6.4 mg/kg relative to control; type: functional
[4] = test system: Escherichia coli; assay: Toxicity in streptomycin-dependent lysogenic Escherichia coli W1709 (lambda) at 12.5 ug/ml; type: organism-based; conditions: in vivo
[5] = test system: Enterobacteria phage lambda; assay: Induction of lambda phage production in streptomycin-dependent lysogenic Escherichia coli W1709 (lambda) assessed as ratio of plaques in treated culture to control at 12.5 ug/ml; type: functional
[6] = test system: Bacillus subtilis; assay: Antibacterial activity against Bacillus subtilis assessed as growth inhibition at 50 ug/ml in 100 mm disk at pH 8.0 by single-disk method; type: functional; conditions: read-out: IZ
[7] = test system: Bacillus subtilis; assay: Antibacterial activity against Bacillus subtilis assessed as growth inhibition at 16.6 ug/ml in 100 mm disk at pH 8.0 by single-disk method; type: functional; conditions: read-out: IZ
[8] = test system: Bacillus subtilis; assay: Antibacterial activity against Bacillus subtilis assessed as growth inhibition at 5.5 ug/ml in 100 mm disk at pH 8.0 by single-disk method; type: functional; conditions: read-out: IZ
[9] = test system: Enterobacteria phage lambda; assay: Induction of lambda phage production in streptomycin-dependent lysogenic Escherichia coli W1709 (lambda) assessed as ratio of plaques in treated culture to control at 3.1 ug/ml; type: functional
[10] = test system: Enterobacteria phage lambda; assay: Induction of lambda phage production in streptomycin-dependent lysogenic Escherichia coli W1709 (lambda) assessed as ratio of plaques in treated culture to control at 0.8 ug/ml; type: functional
[11] = test system: Enterobacteria phage lambda; assay: Induction of lambda phage production in streptomycin-dependent lysogenic Escherichia coli W1709 (lambda) assessed as ratio of plaques in treated culture to control at 0.2 ug/ml; type: functional
[12] = test system: Enterobacteria phage lambda; assay: Induction of lambda phage production in streptomycin-dependent lysogenic Escherichia coli W1709 (lambda) assessed as ratio of plaques in treated culture to control at 0.5 ug/ml; type: functional
[13] = test system: P388; assay: In vivo antitumor activity against mouse P388 cells relative to control; type: functional, organism-based
[14] = test system: Bacillus subtilis; assay: Antibacterial activity against Bacillus subtilis assessed as growth inhibition at 12.5 ug/ml in 100 mm disk at pH 8.0 by single-disk method; type: functional; conditions: read-out: IZ
[15] = test system: Enterobacteria phage lambda; assay: Induction of lambda phage production in streptomycin-dependent lysogenic Escherichia coli W1709 (lambda) assessed as ratio of plaques in treated culture to control at 0.0125 ug/ml; type: functional
[16] = test system: Escherichia coli; assay: Toxicity in streptomycin-dependent lysogenic Escherichia coli W1709 (lambda) at 0.5 ug/ml; type: organism-based; conditions: in vivo
[17] = test system: Bacillus subtilis; assay: Antibacterial activity against Bacillus subtilis assessed as growth inhibition at 0.8 ug/ml in 100 mm disk at pH 8.0 by single-disk method; type: functional; conditions: read-out: IZ
[18] = test system: Bacillus subtilis; assay: Antibacterial activity against Bacillus subtilis assessed as growth inhibition at 0.2 ug/ml in 100 mm disk at pH 8.0 by single-disk method; type: functional; conditions: read-out: IZ
[19] = test system: Bacillus subtilis; assay: Antibacterial activity against Bacillus subtilis assessed as growth inhibition at 3.1 ug/ml in 100 mm disk at pH 8.0 by single-disk method; type: functional; conditions: read-out: IZ

Structure (SMILES)	Activity [1]	Activity [2]	T/C [3] [%]	Activity [4]	T/C [5]	zone of inhibition at 50 µg/mL [6] [mm]	zone of inhibition at 16.6 µg/mL [7] [mm]	zone of inhibition at 5.5 µg/mL [8] [mm]	T/C [9]	T/C [10]	T/C [11]	T/C [12]	Activity [13]	zone of inhibition at 12.5 µg/mL [14] [mm]	T/C [15]	Activity [16]	zone of inhibition at 0.8 µg/mL [17] [mm]	zone of inhibition at 0.2 µg/mL [18] [mm]	zone of inhibition at 3.1 µg/mL [19] [mm]
COC1=C(C)C(=O)c2c(c(COC(N)=O)c3n2CCC3OC(C)=O)C1=O (configuration not stated)	Toxic	Toxic	162	Toxic	> 49	35	35	31.2	> 74	> 49	27.9	–	–	–	–	–	–	–	–
COC1=C(C)C(=O)c2c(c(COC(N)=O)c3n2CCC3[N+]2(C)CCCC2)C1=O (configuration not stated)	–	–	–	–	2.2	14.2	–	–	1.2	1.1	1.1	1.1	inactive	10	–	–	–	–	–
CO[C@@]12[C@H](COC(N)=O)C3=C(C(=O)C(C)=C(N)C3=O)N1C[C@@H]1N[C@@H]12 [MITOMYCIN]	–	–	283	–	–	–	–	–	–	–	–	17.5	–	–	8.6	Toxic	32	22.8	–
COC1=C(C)C(=O)c2c(c(COC(N)=O)c3n2CCC3N2CCCC2)C1=O (configuration not stated)	–	–	–	Toxic	2.1	33	–	–	3.6	1.6	1.3	1.2	inactive	27.8	–	–	15.3	11.3	22
